Values joined by “and” are separate entries in the source; they are usually repeats but may differ in a detail not shown here. Identical values can stand only once. Toxic doses and inconclusive results are not listed.
Tested on: P388 leukemia ip, CD2F1 mice, survival T/C
Assay: NCI In Vivo Anticancer Drug Screen. Data for tumor model P388 Leukemia (intraperitoneal) in CD2F1 (CDF1) mice
Conditions: endpoint: median survival time, higher = longer survival
Summary of the method: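 Mice carrying the transplanted tumor received test compound or vehicle. Survival was recorded in each group, and the value is the treated-group measurement divided by that of the vehicle-treated control group.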

[1] = dose: 30.0 mg/kg/injection, schedule: Q01DX005 (ip), vehicle: Klucel (hydroxypropylcellulose) (HPC)
[2] = dose: 60.0 mg/kg/injection, schedule: Q01DX005 (ip), vehicle: Klucel (hydroxypropylcellulose) (HPC)
[3] = dose: 120.0 mg/kg/injection, schedule: Q01DX005 (ip), vehicle: Klucel (hydroxypropylcellulose) (HPC)
[4] = dose: 1.56 mg/kg/injection, schedule: Q01DX009 (ip), vehicle: saline
[5] = dose: 50.0 mg/kg/injection, schedule: Q01DX009 (ip), vehicle: Klucel (hydroxypropylcellulose) (HPC)
[6] = dose: 100.0 mg/kg/injection, schedule: Q01DX009 (ip), vehicle: Klucel (hydroxypropylcellulose) (HPC)
[7] = dose: 200.0 mg/kg/injection, schedule: Q01DX009 (ip), vehicle: Klucel (hydroxypropylcellulose) (HPC)

What does the source list for `C=C(C)c1nc(N(C)C)nc(N(C)C)n1`?
T/C [1]: 98 % of control; T/C [2]: 88 % of control and 95 % of control; T/C [3]: 88 % of control

How did the T/C (dose: 1.89 mg/kg/injection, schedule: Q01DX005 (ip), vehicle: saline) turn out when `C=C(CN1CCN(C)CC1)C(=O)c1ccccc1` was run?
Its T/C is 113 % of control.

And the T/C (dose: 3.75 mg/kg/injection, schedule: Q01DX005 (ip), vehicle: saline)?
Its T/C is 116 % of control.

And the T/C (dose: 7.5 mg/kg/injection, schedule: Q01DX005 (ip), vehicle: saline)?
Its T/C is 105 % of control and 112 % of control.

How did the T/C [1] turn out when `COc1ccc(/C=C2/C(=O)N(c3ccccc3)N=C2C)c(OC)c1` was run?
The T/C was 91 % of control.

And the T/C [2]?
The T/C was 88 % of control and 95 % of control.

And the T/C [3]?
Its T/C is 94 % of control.

And the T/C (dose: 240.0 mg/kg/injection, schedule: Q01DX005 (ip), vehicle: Klucel (hydroxypropylcellulose) (HPC))?
The T/C was 86 % of control.

For `c1ccc([P+](CC[P+](c2ccccc2)(c2ccccc2)c2ccccc2)(c2ccccc2)c2ccccc2)cc1`, which T/C (dose: 0.78 mg/kg/injection, schedule: Q01DX009 (ip), vehicle: saline) is on record?
Its T/C is 105 % of control.

And the T/C [4]?
Its T/C is 103 % of control.

Which T/C (dose: 25.0 mg/kg/injection, schedule: Q01DX001 (ip), vehicle: Klucel (hydroxypropylcellulose) (HPC)) does the source give for `CC1=C(/C=C/c2ccc(N(C)C)cc2)C(C)C(c2ccc(N(C)C)cc2)CC1=O` (configuration not stated) here?
The T/C was 88 % of control.

And the T/C (dose: 50.0 mg/kg/injection, schedule: Q01DX001 (ip), vehicle: Klucel (hydroxypropylcellulose) (HPC))?
Its T/C is 94 % of control.

And the T/C (dose: 100.0 mg/kg/injection, schedule: Q01DX001 (ip), vehicle: Klucel (hydroxypropylcellulose) (HPC))?
The T/C was 93 % of control.

Which T/C (dose: 12.5 mg/kg/injection, schedule: Q01DX009 (ip), vehicle: saline with Tween-80) does the source give for `CCCCCCCCCCCCCCCC(=O)NC(CCCCN)C(=O)NC(CCCCN)C(=O)OCC` (configuration not stated) here?
Its T/C is 101 % of control.

And the T/C (dose: 25.0 mg/kg/injection, schedule: Q01DX009 (ip), vehicle: saline with Tween-80)?
The T/C was 106 % of control.

How did the T/C [5] turn out when `NS(=O)(=O)c1ccc(NC(=S)S)cc1` was run?
The T/C was 107 % of control.

And the T/C [6]?
Its T/C is 107 % of control.

What about the T/C [7] of the same molecule?
Its T/C is 91 % of control.

With `CN1C=[N+](C)Cc2nnn(Cc3ccccc3)c21` as the molecule, how does the T/C [4] read?
The T/C was 105 % of control.

What about the T/C (dose: 3.12 mg/kg/injection, schedule: Q01DX009 (ip), vehicle: saline) of the same molecule?
Its T/C is 105 % of control.

And the T/C (dose: 6.25 mg/kg/injection, schedule: Q01DX009 (ip), vehicle: saline)?
The T/C was 100 % of control.

Which results are given for `CNC(=S)NNc1cccc([N+](=O)[O-])c1`?
T/C (dose: 25.0 mg/kg/injection, schedule: Q01DX009 (ip), vehicle: other): 96 % of control; T/C (dose: 50.0 mg/kg/injection, schedule: Q01DX009 (ip), vehicle: other): 106 % of control; T/C (dose: 100.0 mg/kg/injection, schedule: Q01DX009 (ip), vehicle: other): 91 % of control; T/C (dose: 200.0 mg/kg/injection, schedule: Q01DX009 (ip), vehicle: other): 92 % of control

`Cc1noc(N)c1Sc1ccc(Br)cc1` was tested. Which T/C (dose: 50.0 mg/kg/injection, schedule: Q01DX005 (ip), vehicle: saline with Tween-80) did it give?
Its T/C is 91 % of control.

And the T/C (dose: 100.0 mg/kg/injection, schedule: Q01DX005 (ip), vehicle: saline with Tween-80)?
The T/C was 100 % of control.

And the T/C (dose: 200.0 mg/kg/injection, schedule: Q01DX005 (ip), vehicle: saline with Tween-80)?
The T/C was 108 % of control.

For `C[N+](C)(C)CCc1ccc2ccccc2c1`, which T/C (dose: 25.0 mg/kg/injection, schedule: Q04DX002 (ip), vehicle: saline + alcohol) is on record?
The T/C was 96 % of control.

And the T/C (dose: 50.0 mg/kg/injection, schedule: Q04DX002 (ip), vehicle: saline + alcohol)?
The T/C was 92 % of control.

What about the T/C (dose: 100.0 mg/kg/injection, schedule: Q04DX002 (ip), vehicle: saline + alcohol) of the same molecule?
The T/C was 106 % of control and 108 % of control.

How did the T/C (dose: 100.0 mg/kg/injection, schedule: Q04DX003 (ip), vehicle: other) turn out when `c1ccc2c3ccc(c2c1)CCc1ccc(c2ccccc12)CC3` was run?
The T/C was 96 % of control.

And the T/C (dose: 200.0 mg/kg/injection, schedule: Q04DX003 (ip), vehicle: other)?
Its T/C is 90 % of control.

What does the source list for `[N-]=[N+]=CC(=O)NCC(=O)NN=C(CO)CO`?
T/C (dose: 180.0 mg/kg/injection, schedule: Q01DX009 (ip), vehicle: water): 154 % of control; T/C (dose: 270.0 mg/kg/injection, schedule: Q01DX009 (ip), vehicle: water): 172 % of control; T/C (dose: 400.0 mg/kg/injection, schedule: Q01DX009 (ip), vehicle: water): 172 % of control; T/C (dose: 600.0 mg/kg/injection, schedule: Q01DX009 (ip), vehicle: water): 181 % of control

Which results are given for `CCOC(=O)C1=C(C)O/C(=C/C=C/c2ccccc2)C1=O`?
T/C [5]: 102 % of control; T/C [6]: 98 % of control; T/C [7]: 103 % of control
